For one assay, the species on record is Rattus norvegicus. Briefly: Tested for diffusion of compound into rat skin receptor fluid, at a dose of 0.05 mg. Format: functional.
The subject of another assay is Melanoma cell. Briefly: Tested for anticancer activity against human melanoma. Format: functional, cell-based.
The nature of assay [1]: Tested for anticancer activity against human lung cancer (NSCLC). Format: functional.
In a further assay the test system is Breast cancer cell line. As to the kind of experiment: Tested for anticancer activity against human breast cancer. Format: functional, cell-based.
The species named for the next assay is Homo sapiens. As to the kind of experiment: Tested against normal human peripheral blood dendritic cells, expressed as IC50. Format: functional, cell-based.
The test system of another assay is Ovarian cancer cell line. As to the kind of experiment: Tested for anticancer activity against human ovarian cancer. Format: functional, cell-based.
Where [2] appears, read: Homo sapiens, Melanoma cell, read-out: IC50.

≈ marks a conversion by molar mass, not a printed value. Bounds are passed on as bounds.

What is called IC50 is the concentration that gives 50% inhibition.

In turn, `CN(C)c1ccc2nc3ccc(N(C)C)cc3[s+]c2c1.O=[N+]([O-])c1ccc(NN=C(c2ccc(O)cc2)c2ccc(O)cc2)c([N+](=O)[O-])c1.[Cl-]` gave an Activity in the assay listed under Rattus norvegicus of 9 ng/mL. For the same molecule, the IC50 was 1 µg/mL with Melanoma cell (melanoma cell); 2 µg/mL in assay [1]; 2.5 µg/mL in the assay on Breast cancer cell line; above 10 µg/mL in the assay listed under Homo sapiens; 2 µg/mL in the assay with Ovarian cancer cell line.

Regarding `Cc1cc2nc3ccc(N(C)C)cc3[s+]c2cc1N.O=[N+]([O-])c1ccc(NN=C(c2ccc(O)cc2)c2ccc(O)cc2)c([N+](=O)[O-])c1.[Cl-]`, the concentration for half-maximal inhibition (IC50) in the assay on Melanoma cell (setting [2]) is 4 µg/mL; in assay [1], 3 µg/mL; with Breast cancer cell line, 1.5 µg/mL.

Regarding `Nc1ccc2nc3ccc(N)cc3[s+]c2c1.O=[N+]([O-])c1ccc(NN=C(c2ccc(O)cc2)c2ccc(O)cc2)c([N+](=O)[O-])c1.[Cl-]`, the IC50 in assay [1] is above 10 µg/mL; with Breast cancer cell line, 0.9 µg/mL; with Ovarian cancer cell line, 0.2 µg/mL.

With `COc1cccc2c1C(=O)c1c(O)c3c(c(O)c1C2=O)C[C@@](O)(C(=O)CO)C[C@@H]3O[C@H]1C[C@H](N)[C@H](O)[C@H](C)O1` [DOXORUBICIN], the half-inhibitory concentration (IC50) in the assay on Melanoma cell (setting [2]) was above 5 µg/mL; in assay [1], above 30 µg/mL; in the assay with Breast cancer cell line, 0.9 µg/mL (≈ 1.66 µM).

In the case of `O=[N+]([O-])c1ccc(NN=C(c2ccc(O)cc2)c2ccc(O)cc2)c([N+](=O)[O-])c1` [SIVIFENE], the IC50 with Melanoma cell (setting [2]) is above 10 µg/mL; in assay [1], 4 µg/mL (≈ 10.1 µM); in the assay with Breast cancer cell line it was above 10 µg/mL; in the assay filed under Homo sapiens, above 10 µg/mL; in the assay with Ovarian cancer cell line, 9 µg/mL (≈ 22.8 µM).

(Values after ChEMBL document CHEMBL1134421, “Anticancer properties for 4,4'-dihydroxybenzophenone-2,4-dinitrophenylhydrazone (A-007)/3,7-diaminophenothiazin-5-ium double salts” (Bioorg Med Chem Lett, 2001).)
